Reference: patent US7071168B2, “Anti-cancer compounds and methods related thereto” (The Regents of the University of Colorado, priority 1998, dated 2006)

Columns and labels:
SCLC strain SHP-77 = assay: Colorimetric tetrazolium (MTT) assay for cell survival, SCLC strain SHP-77; type: cell-based, human
In short: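 MTT assay: cells seeded overnight, treated in triplicate across a concentration range for 4 days at 37 °C, 5% CO2. On day 5, MTT was added for 4 h; formazan was dissolved in acidified isopropanol and absorbance read.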

[1] = biological target: T1, cloned human bradykinin B2 receptors (Homo sapiens, UniProt P30411); assay: Anti-bradykinin activity on cloned human B2 receptors (CHO cells, Cytosensor microphysiometer); type: cell-based; settings: higher numbers indicate higher potency
T1 sequence (P30411 1-391): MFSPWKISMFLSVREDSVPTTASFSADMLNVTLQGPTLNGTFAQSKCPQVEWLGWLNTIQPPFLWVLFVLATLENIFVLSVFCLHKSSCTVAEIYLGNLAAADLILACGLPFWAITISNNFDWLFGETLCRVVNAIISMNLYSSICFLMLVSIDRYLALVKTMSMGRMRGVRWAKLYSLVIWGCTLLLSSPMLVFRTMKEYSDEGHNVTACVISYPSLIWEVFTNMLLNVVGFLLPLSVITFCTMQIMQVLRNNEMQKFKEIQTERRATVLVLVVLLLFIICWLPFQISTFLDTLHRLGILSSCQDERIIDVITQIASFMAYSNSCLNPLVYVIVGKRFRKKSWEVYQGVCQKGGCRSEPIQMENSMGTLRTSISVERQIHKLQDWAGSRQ
Protocol: In general, Anti-bradykinin activity was determined by the classical guinea pig ileum assay and on Chinese hamster ovary (CHO) cells expressing cloned human bradykinin B2 receptors. Anti-tumor activity was determined on cultured human cancer cell lines using the standard tetrazolium (MTT) assay.
Chinese hamster ovary cells containing cloned and expressed human bradykinin B2 receptors were grown in cell cups of the Cytosensor microphysiometer in Ham's F-12 medium supplemented with sodium pyruvate and 10% FBS (Gibco 11765-054). For assay the cells were transferred to Ham's F-12 without bicarbonate or serum (Gibco 21700-075) and placed in the Cytosensor. Concentration-response curves were constructed to bradykinin in the presence or absence of new compounds.

[2] = test system: bradykinin response of isolated guinea pig ileum; assay: Anti-bradykinin activity on isolated guinea pig ileum; settings: Table 1; higher numbers indicate higher potency
In short: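 Terminal ileum segments (25 mm) from overnight-fasted male Hartley guinea pigs, in Krebs' solution gassed with 95% O2/5% CO2 under 1 g tension, equilibrated 1 h. Bradykinin concentration-effect curves constructed without and with test compounds.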

[3] = cloned human B2 receptors, pD2 for bradykinin is 11

Compound	MTT: ED50 for killing of SCLC strain SHP-77 in vitro (SCLC strain SHP-77; SCLC strain SHP-77 in vitro) [µM]	HUMAN: pA2 for bradykinin antagonist potency on cloned human B2 receptors [1, 3]	MTT: ED50 for killing of SCLC strain SHP-77 in vitro (SCLC strain SHP-77; Table 1, SHP-77, MTT, 4 days)	HUMAN: pA2 for bradykinin antagonist potency on cloned human B2 receptors ([1]; Table 1)	GPI: pA2 for bradykinin antagonist activity on isolated guinea pig ileum [2]
O=C(C=Cc1cccnc1)Nc1ccc(C(=O)NC(Cc2ccc3ccccc3c2)C(=O)O)cc1 (stereo not drawn) [M422]	52	Inact			
CC1(C)CC(NC(=O)[C@H](CC(=O)O)NC(=O)[C@H](Cc2ccc3ccccc3c2)NC(=O)CCCCCCCCCCC(=O)N[C@@H](Cc2ccc3ccccc3c2)C(=O)N[C@@H](CC(=O)O)C(=O)NC2CC(C)(C)NC(C)(C)C2)CC(C)(C)N1 [M432]	70	10			
O=C(C=Cc1cccnc1)NC(Cc1ccc2ccccc2c1)C(=O)Nc1cccc(CO)c1 (stereo not drawn) [M474]	35	Inact			
CN(C)c1ccc(CNC(=O)C(Cc2ccc3ccccc3c2)NC(=O)C=Cc2c(F)c(F)c(F)c(F)c2F)cc1 (stereo not drawn) [M536]	4	Inact			
CN(C)c1cccc2c(S(=O)(=O)NC(Cc3ccc(OCc4ccccc4)cc3)C(=O)NC3CC(C)(C)NC(C)(C)C3)cccc12 (stereo not drawn) [M574]	4.5	Inact			
CC1(C)CC(NC(=O)C(NC(=O)C=Cc2ccc(NC(=O)CCCCCCCCC(=O)O)cc2)C2Cc3ccccc3C2)CC(C)(C)N1 (stereo not drawn) [M586-B]	40	12.3			
CC1(C)CC(NC(=O)C(Cc2ccc(OCc3c(Cl)cccc3Cl)cc2)NC(=O)C(C#N)=Cc2ccc(O)cc2)CC(C)(C)N1 (stereo not drawn) [M602]	12	10.8			
DDD-(Arg-DIgl-Oic-Arg-OMe)2 [M598]			13 µM	10	
F5c-DArg-Arg-Eac-Ser-DTic-Oic-Arg [M792]			>100 µM		4.9
F5c-DArg-Arg-Pro-Hyp-Gly-Igl-Ser-DIgl-Oic-Arg [B10238]			150 µM		8.1
F5c-DArg-Eac-2Nal-Arg [M696]			Inact		5.1
F5c-DArg-Eac-hPhe-Arg [M738]			Inact		5.3
F5c-F5F-Arg [M810]			40 µM		4.6
F5c-Gly-mABz-2Nal-Arg [M196]			Inact		5.1
F5c-Lys-Ser-DF5F-Oic-Arg [M802]			Inact		6.3
F5c-MBC-Arg [M528]			Inact		Inact
F5c-MFF-Arg [M826]			76 µM		Inact
F5c-NMF-Arg [M686]			29 µM		5.6
F5c-PFF-Arg [M718]			9 µM		5.1
F5c-PaF(Ppa)-Arg [M720]			Inact		4.8
F5c-pABz-2Nal-Arg [M176]			Inact		5.4
